Laboratory results as given in publication PMC9795464 (JACS Au, 2022).

Experiments:
[1] = target: T1, FXR (Homo sapiens, UniProt Q96RI1); assay: AlphaScreen corepressor NCoR-2 recruitment assay; format: biochemical; conditions: Figure 1I
T1 sequence (Q96RI1 243-472 isoform Q96RI1-2): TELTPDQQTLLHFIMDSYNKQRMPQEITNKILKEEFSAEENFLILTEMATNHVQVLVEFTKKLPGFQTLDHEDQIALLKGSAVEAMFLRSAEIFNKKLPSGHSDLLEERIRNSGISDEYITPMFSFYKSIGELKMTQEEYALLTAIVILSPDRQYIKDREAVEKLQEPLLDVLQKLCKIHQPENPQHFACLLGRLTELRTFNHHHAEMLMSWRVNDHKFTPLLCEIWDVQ

[2] = test system: BDL-induced liver injury in mice; assay: Bile duct ligation; format: in vivo
[3] = test system: inflammation, fibrosis and FXR target genes in liver; assay: Liver mRNA levels by qPCR in BDL mice; format: in vivo
[4] = 3 mg/kg p.o. once daily day 7 to 14 after BDL

CC[C@H]1[C@@H](O)[C@@H]2[C@H](CC[C@]3(C)[C@@H]([C@H](C)CCC(=O)O)CC[C@@H]23)[C@@]2(C)CC[C@@H](O)C[C@@H]12 [OCA, Obeticholic acid]
binding affinity between FXR and NCoR2 [1]: decreased the binding affinity
collagen deposition (Sirius red) compared to the vehicle group [2, 4]: smaller amount
inflammatory infiltrates (H&E) compared to the vehicle group [2, 4]: lower level
BDL-induced increase in total bilirubin level in the serum ([2]; once daily day 7 to 14 after BDL): reversed
liver mRNA expression of inflammatory biomarkers IL-6, IL-1β, iNOS, COX2 [3]: significantly decreased
